Tests used:
paw of rats = assay: Pharmacological test for anti-inflammatory properties (carrageenan rat paw swelling); assay type: in vivo; settings: oral 1 hour before carrageenan (0.05 ml of 1%), swelling 4 hours after injection by plethysmography, dose not given
Experimental: 1. Pharmacological test for anti-inflammatory properties.
The compounds to be tested are given as freshly prepared solutions or suspensions by oral route 1 hour before injecting the paw of rats with carrageenan which is a known inflammatory agent.
The inflammatory agent (carrageenan) either in solution or suspension is then injected into the plantar tissue of the right hind paw of each rat, the left paw remaining untreated and serving as control. Each animal receives, for example, 0.05 ml of an aqueous solution containing 1% by weight of carrageenan and 0.9% of sodium chloride.
4 hours after the injection of the inflammatory agent, the importance of swelling is determined by plethysmography and is expressed as a percent of the volume of the control paw.
The anti-inflammatory effect expressed as a percentage of inhibition is obtained by comparison between rats treated with the anti-inflammatory compound and a control group of rats.

rats = assay: Pharmacological test for diuretic properties (urine volume); assay type: in vivo; settings: 50 mg/kg gastric gavage, 25 ml/kg saline s.c., urine collected 4 hours, ml/kg of body weight
Experimental: 2. Pharmacological tests for diuretic properties Lots of 3 rats weighting 250-300 g have been constituted at random, each of them being submitted to the same treatment. The compound to be tested was administered by .[.gastric gavage at a dose of 50 ml/kg as a solution or a.]. .Iadd.gastric gavage at a dose of 50 mg/kg as a solution or a .[…].suspension in water containing 0.45% of methylcellulose (which is an inert mucilaginous substance). Control animals received only distilled water as a placebo. At the same time, all the animals received 25 ml/kg of physiological saline by subcutaneous injection. The rats were then placed in metabolic cages, each cage containing 3 animals receiving the same treatment. The urines have been collected during 4 hours. […] The diuresis is expressed in ml/kg of body weight.

In the case of `CCNC(=O)NS(=O)(=O)c1cnccc1Nc1ccc(Cl)cc1` [JDL 416, 3-ethylcarbamylsulfonamido-4-(4'-chloro)-phenylaminopyridine], the “% inhibition of acute oedema” value (paw of rats) is reported as 85.6% and the Diuresis (rats) is reported as 52.8 mL/kg.
With `CCNC(=O)NS(=O)(=O)c1cnccc1Nc1cccc(F)c1` [JDL 465, 3-ethylcarbamylsulfonamido-4-(3'-fluoro)-phenylaminopyridine] the “% inhibition of acute oedema” value (paw of rats) was 71.2% and the Diuresis (rats) was 76.7 mL/kg.
For `CCN(CC)c1ccncc1S(=O)(=O)NC(=O)NC(C)C` [JDL 483, 3-isopropylcarbamylsulfonamido-4-diethylaminopyridine], the “% inhibition of acute oedema” value (paw of rats) was 0% and the Diuresis (rats) was 12.4 mL/kg.
For `CC(C)NC(=O)NS(=O)(=O)c1cnccc1Nc1ccc(Cl)c(C(F)(F)F)c1` [JDL 487, 3-isopropylcarbamylsulfonamido-4-(3'-trifluoromethyl-4'-chloro)-phenylaminopyridine], the “% inhibition of acute oedema” value (paw of rats) was 20.8% and the Diuresis (rats) was 10.5 mL/kg.
For `O=C(Nc1ccc(Cl)cc1)NS(=O)(=O)c1cnccc1Nc1cccc(Cl)c1` [JDL 391, 3-parachlorophenylcarbamylsulfonamido-4-(3'-chloro)-phenylaminopyridine], the “% inhibition of acute oedema” value (paw of rats) was 74.4% and the Diuresis (rats) was 9.6 mL/kg.
With `CNC(=O)NS(=O)(=O)c1cnccc1Nc1cccc([N+](=O)[O-])c1` [JDL 504, 3-methylcarbamylsulfonamido-4-(3'-nitro)-phenylaminopyridine] the “% inhibition of acute oedema” value (paw of rats) was 43.0% and the Diuresis (rats) was 17.2 mL/kg.
In the case of `CCCCNC(=O)NS(=O)(=O)c1cnccc1Nc1cccc(C(F)(F)F)c1` [JDL 356, 3-butylcarbamylsulfonamido-4-(3'-trifluoromethyl)-phenylaminopyridine], the “% inhibition of acute oedema” value (paw of rats) is reported as 80.8% and the Diuresis (rats) is reported as 54.7 mL/kg.
For `CC(C)NC(=O)NS(=O)(=O)c1cnccc1Nc1cccc([N+](=O)[O-])c1` [JDL 505, 3-isopropylcarbamylsulfonamido-4-(3'-nitro)-phenylaminopyridine], the “% inhibition of acute oedema” value (paw of rats) was 68.0% and the Diuresis (rats) was 56.3 mL/kg.
With `CCC(=O)NS(=O)(=O)c1cnccc1N(C)c1ccccc1` [JDL 358, 3-propionylsulfonamido-4-(N-methylanilino)-pyridine] the “% inhibition of acute oedema” value (paw of rats) was 57.3% and the Diuresis (rats) was 17.9 mL/kg.
